Reference: patent publication US20060069132A1, “Azolecarboxamide herbicides” (priority 2004, published 2006)

How the values were obtained:
giant foxtail = experiment: Test A pre-/postemergence herbicide test; format: in vivo, Setaria faberi
Procedure, shortened: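 Sandy loam soil given preemergence directed spray; plants at 2 to 10 cm, one- to two-leaf stage, sprayed to runoff postemergence, compounds in non-phytotoxic solvent with surfactant. Injury rated visually versus untreated controls after about ten greenhouse days, 0 (no effect) to 100 (complete control); dash means not tested.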

rice = experiment: Test B pre-/postemergence herbicide test; format: in vivo, Oryza sativa; details: preemergence; for Rice plant response rating (0 to 100 scale): 125 g ai/ha; for Plant response rating, Rice: 500 g ai/ha
Procedure, shortened: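 Response was scored visually 13 to 15 days after treatment against untreated greenhouse controls, 0 meaning no effect and 100 complete control. Formulations (solvent mixture plus surfactant) went onto soil after planting, onto foliage of 1- to 4-leaf plants, and onto 2-leaf plants in a flooded paddy set including rice and barnyardgrass.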

large crabgrass = experiment: Test C pre-/postemergence herbicide test; format: in vivo, Digitaria sanguinalis; details: for Plant response rating, Crabgrass, Large: preemergence; for Crabgrass, Large plant response rating: Preemergence, scale 0 to 100, 0 no effect, 100 complete control
Procedure, shortened: (§1)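 Preemergence: seeds planted and treated with compound in non-phytotoxic solvent with surfactant; postemergence: plants at 2 to 18 cm (1- to 4-leaf stage) sprayed likewise. Kept in greenhouse 12 to 14 days, then visually rated against controls, 0 (no effect) to 100 (complete control).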

goosegrass = experiment: Test C pre-/postemergence herbicide test; format: in vivo, Eleusine indica; details: for Plant response rating, Goosegrass: preemergence; for Goosegrass plant response rating: Preemergence, scale 0 to 100, 0 no effect, 100 complete control
Procedure, shortened: as §1

kochia = experiment: Test C pre-/postemergence herbicide test; format: in vivo, Kochia scoparia; details: for Plant response rating, Kochia: preemergence; for Kochia plant response rating: Preemergence, scale 0 to 100, 0 no effect, 100 complete control
Procedure, shortened: as §1

pigweed = experiment: Test C pre-/postemergence herbicide test; format: in vivo, Amaranthus retroflexus; details: for Plant response rating, Pigweed: preemergence; for Pigweed plant response rating: Preemergence, scale 0 to 100, 0 no effect, 100 complete control
Procedure, shortened: as §1

common ragweed = experiment: Test C pre-/postemergence herbicide test; format: in vivo, Ambrosia elatior; design: key to Plant response rating, Ragweed: 0 = no effect, 100 = complete control; details: for Plant response rating, Ragweed: preemergence; for Ragweed plant response rating: Preemergence, scale 0 to 100, 0 no effect, 100 complete control
Procedure, shortened: as §1

velvetleaf = experiment: Test C pre-/postemergence herbicide test; format: in vivo, Abutilon theophrasti; details: for Plant response rating, Velvetleaf: preemergence; for Velvetleaf plant response rating: Preemergence, scale 0 to 100, 0 no effect, 100 complete control
Procedure, shortened: as §1

barnyardgrass = experiment: Test C flooded paddy test; format: in vivo, Echinochloa crus-galli
Procedure, shortened: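 Postemergence sprays were applied to plants 2 to 18 cm tall (1- to 4-leaf stage); in the flooded paddy test, barnyardgrass was grown to the 2-leaf stage. After 12 to 14 days in a greenhouse, injury was visually rated against untreated controls on a 0–100 scale (100 = complete control).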

[1] = Postemergence, 500 g ai/ha, 0 to 100 scale, 0 no effect, 100 complete control
[2] = Postemergence, 2000 g ai/ha, 0 to 100 scale, 0 no effect, 100 complete control
[3] = Preemergence, 2000 g ai/ha, visual rating, 0 to 100 scale (0 no effect, 100 complete control)
[4] = preemergence, 500 g ai/ha, visual injury, 0 to 100 scale (0 no effect, 100 complete control)
[5] = 0 = no effect, 100 = complete control
[6] = visual rating 0-100, 0 no effect, 100 complete control
[7] = 125 g ai/ha, scale 0 (no effect) to 100 (complete control), visual, 12 to 14 days
[8] = 500 g ai/ha, scale 0 to 100 (0 no effect, 100 complete control), visual, 12 to 14 days

`CC(=NO)c1cccc(NC(=O)c2sc(C(C)(C)C)nc2C)c1` [Compound 195] was tested, and the “Foxtail, Giant plant response rating” value (giant foxtail; [1]) was 5, the “Plant response rating, Foxtail, Giant” value (giant foxtail; [2]) was 0 and the “Foxtail, Giant plant response rating” value (giant foxtail; [3]) was 45. For the same molecule, the “Foxtail, Giant plant response rating” value (giant foxtail; [4]) was 30, the “Rice plant response rating (0 to 100 scale)” value (from here on “Rice plant response rating”) (rice; [5]) was 10 and the “Plant response rating, Rice” value (rice; [6]) was 20. The “Plant response rating, Crabgrass, Large” value (large crabgrass; 62 g ai/ha, scale 0 to 100) was 0, the “Plant response rating, Crabgrass, Large” value (large crabgrass; [7]) was 0 and the “Plant response rating, Crabgrass, Large” value (large crabgrass; 250 g ai/ha, scale 0-100) was 5. For the same molecule, the “Crabgrass, Large plant response rating” value (large crabgrass; 500 g ai/ha) was 70, the “Plant response rating, Goosegrass” value (goosegrass; 62 g ai/ha, scale 0 to 100) was 100 and the “Plant response rating, Goosegrass” value (goosegrass; [7]) was 100. For the same molecule, the “Plant response rating, Goosegrass” value (goosegrass; 250 g ai/ha, scale 0-100) was 100, the “Goosegrass plant response rating” value (goosegrass; 500 g ai/ha) was 100 and the “Plant response rating, Kochia” value (kochia; 62 g ai/ha, scale 0 to 100) was 0. For the same molecule, the “Plant response rating, Kochia” value (kochia; [7]) was 0, the “Plant response rating, Kochia” value (kochia; 250 g ai/ha, scale 0-100) was 10 and the “Kochia plant response rating” value (kochia; 500 g ai/ha) was 85. The “Plant response rating, Pigweed” value (pigweed; 62 g ai/ha, scale 0 to 100) was 55, the “Plant response rating, Pigweed” value (pigweed; [7]) was 60 and the “Plant response rating, Pigweed” value (pigweed; 250 g ai/ha, scale 0-100) was 90. For the same molecule, the “Pigweed plant response rating” value (pigweed; 500 g ai/ha) was 90, the “Plant response rating, Ragweed” value (common ragweed; 62 g ai/ha, scale 0 to 100) was 20 and the “Plant response rating, Ragweed” value (common ragweed; [7]) was 40. The “Plant response rating, Ragweed” value (common ragweed; 250 g ai/ha, scale 0-100) was 80, the “Ragweed plant response rating” value (common ragweed; 500 g ai/ha) was 90 and the “Plant response rating, Velvetleaf” value (velvetleaf; 62 g ai/ha, scale 0 to 100) was 0. For the same molecule, the “Plant response rating, Velvetleaf” value (velvetleaf; [7]) was 50, the “Plant response rating, Velvetleaf” value (velvetleaf; 250 g ai/ha, scale 0-100) was 55 and the “Velvetleaf plant response rating” value (velvetleaf; 500 g ai/ha) was 100.
With `CCN(C)C(=O)c1ccc(F)c(NC(=O)C2CC(C(C)(C)C)=NN2CC)c1` (racemic) [Compound 307] the “Rice plant response rating” value (rice; [5]) was 80, the “Plant response rating, Rice” value (rice; visual rating, 0 = no effect, 100 = complete control) was 90 and the “Plant response rating, Crabgrass, Large” value (large crabgrass; 62 g ai/ha, scale 0 to 100) was 80. The “Plant response rating, Crabgrass, Large” value (large crabgrass; [7]) was 100, the “Plant response rating, Crabgrass, Large” value (large crabgrass; 250 g ai/ha, scale 0-100) was 100 and the “Plant response rating, Crabgrass, Large” value (large crabgrass; [8]) was 100. For the same molecule, the “Plant response rating, Goosegrass” value (goosegrass; 62 g ai/ha, scale 0 to 100) was 90, the “Plant response rating, Goosegrass” value (goosegrass; [7]) was 95 and the “Plant response rating, Goosegrass” value (goosegrass; 250 g ai/ha, scale 0-100) was 100. The “Plant response rating, Goosegrass” value (goosegrass; [8]) was 100, the “Plant response rating, Kochia” value (kochia; 62 g ai/ha, scale 0 to 100) was 100 and the “Plant response rating, Kochia” value (kochia; [7]) was 100. The “Plant response rating, Kochia” value (kochia; 250 g ai/ha, scale 0-100) was 100, the “Plant response rating, Kochia” value (kochia; [8]) was 100 and the “Plant response rating, Pigweed” value (pigweed; 62 g ai/ha, scale 0 to 100) was 100. For the same molecule, the “Plant response rating, Pigweed” value (pigweed; [7]) was 100, the “Plant response rating, Pigweed” value (pigweed; 250 g ai/ha, scale 0-100) was 100 and the “Plant response rating, Pigweed” value (pigweed; [8]) was 100. For the same molecule, the “Plant response rating, Ragweed” value (common ragweed; 62 g ai/ha, scale 0 to 100) was 80, the “Plant response rating, Ragweed” value (common ragweed; 250 g ai/ha, scale 0-100) was 100 and the “Plant response rating, Ragweed” value (common ragweed; [8]) was 100. The “Plant response rating, Velvetleaf” value (velvetleaf; 62 g ai/ha, scale 0 to 100) was 70, the “Plant response rating, Velvetleaf” value (velvetleaf; 250 g ai/ha, scale 0-100) was 100 and the “Plant response rating, Velvetleaf” value (velvetleaf; [8]) was 100. The “Barnyardgrass plant response rating” value (barnyardgrass; 62 g ai/ha, scale 0 to 100 (0 no effect, 100 complete control)) was 30, the “Barnyardgrass plant response rating” value (barnyardgrass; 125 g ai/ha, scale 0 to 100 (0 no effect, 100 complete control)) was 65 and the “Barnyardgrass plant response rating” value (barnyardgrass; 250 g ai/ha, scale of 0 to 100, 0 is no effect, 100 is complete control) was 80. The “Plant response rating, Barnyardgrass” value (barnyardgrass; 500 g ai/ha, visual rating after 12 to 14 days, scale 0 to 100 (0 no effect, 100 complete control)) was 95.
For `CCNC(=O)c1cccc(NC(=O)c2sc(C(C)(C)C)nc2C)c1` [Compound 198], the “Foxtail, Giant plant response rating” value (giant foxtail; [1]) was 30, the “Plant response rating, Foxtail, Giant” value (giant foxtail; [2]) was 65 and the “Foxtail, Giant plant response rating” value (giant foxtail; [3]) was 95. The “Foxtail, Giant plant response rating” value (giant foxtail; [4]) was 90, the “Rice plant response rating” value (rice; [5]) was 30 and the “Plant response rating, Rice” value (rice; [6]) was 80. The “Plant response rating, Crabgrass, Large” value (large crabgrass; 62 g ai/ha, scale 0 to 100) was 80, the “Plant response rating, Crabgrass, Large” value (large crabgrass; [7]) was 85 and the “Plant response rating, Crabgrass, Large” value (large crabgrass; 250 g ai/ha, scale 0-100) was 95. For the same molecule, the “Crabgrass, Large plant response rating” value (large crabgrass; 500 g ai/ha) was 95, the “Plant response rating, Goosegrass” value (goosegrass; 62 g ai/ha, scale 0 to 100) was 20 and the “Plant response rating, Goosegrass” value (goosegrass; [7]) was 80. The “Plant response rating, Goosegrass” value (goosegrass; 250 g ai/ha, scale 0-100) was 95, the “Goosegrass plant response rating” value (goosegrass; 500 g ai/ha) was 100 and the “Plant response rating, Kochia” value (kochia; 62 g ai/ha, scale 0 to 100) was 50. For the same molecule, the “Plant response rating, Kochia” value (kochia; [7]) was 80, the “Plant response rating, Kochia” value (kochia; 250 g ai/ha, scale 0-100) was 100 and the “Kochia plant response rating” value (kochia; 500 g ai/ha) was 100. The “Plant response rating, Pigweed” value (pigweed; 62 g ai/ha, scale 0 to 100) was 100, the “Plant response rating, Pigweed” value (pigweed; [7]) was 100 and the “Plant response rating, Pigweed” value (pigweed; 250 g ai/ha, scale 0-100) was 100. For the same molecule, the “Pigweed plant response rating” value (pigweed; 500 g ai/ha) was 100, the “Plant response rating, Ragweed” value (common ragweed; 62 g ai/ha, scale 0 to 100) was 50 and the “Plant response rating, Ragweed” value (common ragweed; [7]) was 80. For the same molecule, the “Plant response rating, Ragweed” value (common ragweed; 250 g ai/ha, scale 0-100) was 95, the “Ragweed plant response rating” value (common ragweed; 500 g ai/ha) was 100 and the “Plant response rating, Velvetleaf” value (velvetleaf; 62 g ai/ha, scale 0 to 100) was 5. For the same molecule, the “Plant response rating, Velvetleaf” value (velvetleaf; [7]) was 80, the “Plant response rating, Velvetleaf” value (velvetleaf; 250 g ai/ha, scale 0-100) was 80 and the “Velvetleaf plant response rating” value (velvetleaf; 500 g ai/ha) was 100.
